The test system of this assay is GADD153 mRNA. As to the kind of experiment: GADD153 mRNA level in 2008 ovarian carcinoma cells after paclitaxel. It is filed as cell-based. The note with it: concentration 10 times the IC50, 24 hours.

Structures are written as SMILES.

The values below come from US6447997B1, “Gene coding for GADD153 as a clinical diagnostic and prognostic in cancer therapy” (Research Development Foundation, priority 1997, dated 2002).

As for `CC(=O)O[C@H]1C(=O)[C@@]2(C)[C@H]([C@H](OC(=O)c3ccccc3)[C@]3(O)C[C@H](OC(=O)[C@H](O)[C@@H](NC(=O)c4ccccc4)c4ccccc4)C(C)=C1C3(C)C)[C@]1(OC(C)=O)CO[C@@H]1C[C@@H]2O` [paclitaxel], the “increase in GADD153 mRNA level” value turned out to be 5.7±2.5 fold.
